# Active and inactive are the calls of the source. The rule behind the calls is not given here.
# How the values were obtained:
# HUVEC [1] = experiment: Antimigratory activity in HUVEC at 10 uM after 6 hrs by DAPI staining based Boyden chamber method; type: functional, cell-based; settings: Homo sapiens
# HUVEC [2] = experiment: Antiangiogenic activity in fibronectin pretreated HUVEC assessed as reduction in cell adhesion at 10 uM after 90 mins by DAPI staining based microscopic method; type: functional; settings: Homo sapiens
# HUVEC [3] = experiment: Antiangiogenic activity in HUVEC assessed as inhibition of cell morphogenesis by measuring reduction in capillary like structure formation at 10 uM after 6 hrs by inverted microscopic method; type: functional, cell-based; settings: Homo sapiens
# HUVEC [4] = experiment: Anti-invasive activity in HUVEC at 10 uM after 24 hrs by DAPI staining based Boyden chamber method; type: functional, cell-based; settings: Homo sapiens
# HUVEC [5] = experiment: Cytotoxicity against HUVEC assessed as reduction in cell viability at 20 uM up to 96 hrs by MTT assay; type: cell-based; settings: human
# HUVEC [6] = experiment: Cytotoxicity against HUVEC assessed as induction of apoptosis at 10 uM after 24 hrs by Annexin V/7-AAD staining based flow cytometry; type: cell-based; settings: human
# HUVEC [7] = experiment: Cytotoxicity against HUVEC assessed as reduction in cell viability up to 20 uM up to 96 hrs by MTT assay; type: cell-based; settings: human
# HUVEC [8] = experiment: Cytotoxicity against HUVEC assessed as reduction in cell viability at 10 uM after 96 hrs by MTT assay; type: cell-based; settings: human
Compound,Activity (HUVEC [1]),Activity (HUVEC [2]),Antiangiogenic activity (active/not active) (HUVEC [3]),Activity (HUVEC [4]),Activity (HUVEC [5]),Activity (HUVEC [6]),Activity (HUVEC [7]),Activity (HUVEC [8])
COCOc1cc(OC)c(C(=O)/C=C/c2ccc([N+](=O)[O-])cc2)c(O)c1CC=C(C)C,Active,Active,Active,inactive,Toxic,Toxic,–,–
COCOc1cc(OC)c(C(=O)/C=C/c2ccc(OC)cc2F)c(O)c1CC=C(C)C,–,Active,Active,inactive,–,–,Non-Toxic,–
COCOc1cc(OC)c(C(=O)/C=C/c2ccccc2F)c(O)c1CC=C(C)C,–,Active,Active,–,–,–,–,–
COCOc1cc(OC)c(C(=O)/C=C/c2ccc(OC)c(F)c2)c(O)c1CC=C(C)C,Active,Active,Active,inactive,–,–,–,–
COc1ccc(/C=C/C(=O)c2c(OC)cc(O)c(CC=C(C)C)c2O)c(F)c1,Active,Active,Active,inactive,Toxic,–,–,–
COCOc1cc(OC)c(C(=O)/C=C/c2ccc(F)cc2)c(O)c1CC=C(C)C,Active,–,–,inactive,–,–,–,–
COc1cc(O)c(CC=C(C)C)c(O)c1C(=O)/C=C/c1ccc(F)cc1,Active,Active,Active,inactive,–,–,–,–
COCOc1cc(OC)c(C(=O)/C=C/c2ccc(OC)cc2F)c(OCOC)c1CC=C(C)C,Active,Active,Active,inactive,–,–,–,Toxic
COCOc1cc(OC)c(C(=O)/C=C/c2ccc(OC)c(F)c2)c(OCOC)c1CC=C(C)C,Active,Active,Active,inactive,–,–,–,Toxic
COc1cc(O)c(CC=C(C)C)c(O)c1C(=O)/C=C/c1ccc(O)cc1 [XANTHOHUMOL],Active,Active,Active,Active,Toxic,–,–,–
COc1cc(O)c(CC=C(C)C)c(O)c1C(=O)/C=C/c1ccccc1F,–,Active,Active,–,–,–,–,–
COc1ccc(/C=C/C(=O)c2c(OC)cc(O)c(CC=C(C)C)c2O)cc1F,Active,Active,Active,inactive,–,–,–,–

# — ChEMBL document CHEMBL4190290, “Synthesis and antiangiogenic activity study of new hop chalcone Xanthohumol analogues” (Eur J Med Chem, 2017)
